Source: PMC7762659, “Phenolic Compounds from Polygonum chinense Induce Growth Inhibition and Apoptosis of Cervical Cancer SiHa Cells” (BioMed Research International, 2020)
Where two headings read alike, the source gives them in different places.

Tests used:
Type in all cases: cell-based, human
SiHa cells = assay: CCK8 antiproliferative activity assay on SiHa cells; conditions: 48 h, read-out: IC50, antiproliferation activity on SiHa cells (PC phenolics)
Method: (§1) The SiHa cell line was obtained from American Type Culture Collection (ATCC, Manassas, Virginia, VA, USA); HcerEpic cell was obtained from ScienCell (San Diego, Los Angeles, LA, USA). The cells were maintained in medium RP1640 containing 10% FBS, high glucose DMEM cultured with 100 U/ml of penicillin, and 100 U/ml of streptomycin, in a humidified CO2 (5%) incubator at 37°C. All reagents for cell cultures were purchased from Invitrogen (Carlsbad, California, CA, USA).
(§2) SiHa and HcerEpic cells were cultured in 96-well plates at approximately 7.5 × 10^3 cells per well and incubated for 12 h. Then, cells were treated with different concentrations of PC extracts (5, 10, 25, 50, and 100 μg/mL) or seven PC PHE (10, 20, 40, 60, and 80 μM). After incubation of 48 h, then 10 μL CCK8 reagent added per hole, placed in the incubator 2 h, incubation, enzyme standard instrument determination at 450 nm absorbance (OD value).
(§3) Cell vitality∗(%) = [A (dosing) − A (blank)]/[A dosing (O) − A (blank)] × 100%A (dosing): OD values of Wells with cell, CCK8 solution, and drug solution.
(§4) A (blank): OD values of Wells with medium, CCK8 solution, and no cells.
(§5) A (0 dosing): OD values of Wells with cell and CCK8 solution but no drug solution.

HcerEpic cells = assay: CCK8 antiproliferative activity assay on HcerEpic cells; conditions: 48 h, read-out: IC50, antiproliferation activity on HcerEpic cells (PC phenolics)
Method: as §1, §2, §3, §4, §5

[1] = test system: P53, Bax, Bcl-2, caspase 3, caspase 9 in SiHa cells; assay: Western blot of apoptosis-related proteins in SiHa cells; conditions: SiHa cells, 25, 50, 75 μM, 48 h, compared with control
Method: We followed the Western blot methods of Tu et al. 2020 [24]. […] The culture was terminated after 48 h. Then, cells were collected and proteins were extracted with RIPA lysis buffer containing a protease inhibitor cocktail. The total protein concentrations were measured using the Bradford method, and the normalized protein samples were added to 4 sample buffer, then boiled and denatured. Equal amounts of proteins were separated by SDS-PAGE and then transferred to nitrocellulose membranes. The membranes were blocked and then probed with indicated primary antibodies, respectively, with anti-P53 (1 : 1000), anti-Bax (1 : 1000), anti-Bcl-2 (1 : 1000), anti-caspase 3 (1 : 2500), anti-caspase 9 (1 : 2500), anti-cleaved-caspase 3 (1 : 1000), and anti-cleaved-caspase 9 (1 : 1000), at 4°C overnight. Antibodies were purchased from Abcam (Santa Cruz, California, CA, USA); others were from Cell Signaling Technology (Cell Signaling, Danvers, Massachusetts, MA, USA). All antibodies were diluted with 5% BSA in TBST buffer. The blots were rinsed and then incubated with secondary antibodies (anti-mouse antibody or anti-rabbit antibody, 1 : 5000, Cell Signaling Technology). Reactive bands were visualized using ECL (Thermo Fisher Scientific; Waltham, MA, USA) and then calibrated by ChemiDoc Imaging System (Bio-Rad; Hercules, California, CA, USA).

With `O=C1CC(C(=O)O)c2c1oc(=O)c1cc(O)c(O)c(O)c21` (stereo not shown) [Brevifolin carboxylic acid] the IC50 (SiHa cells) was > 100 µM and the IC50 (HcerEpic cells) was > 100 µM.
In the case of `O=C(O)C[C@@H]1C(=O)O[C@H]2[C@@H]3OC(=O)c4cc(O)c(O)c(O)c4-c4c(cc(O)c(O)c4O)C(=O)OC[C@H]2O[C@@H](OC(=O)c2cc(O)c(O)c(O)c2)[C@@H]3OC(=O)c2cc(O)c(O)c3c2[C@H]1[C@H](O)C(=O)O3` [Chebulagic acid], the IC50 (SiHa cells; Homo sapiens, SiHa) is reported as > 100 µM and the IC50 (HcerEpic cells; Homo sapiens) is reported as > 100 µM.
`O=C(/C=C/c1ccc(O)c(O)c1)O[C@@H]1C[C@](O)(C(=O)O)C[C@@H](O)[C@H]1O` [Chlorogenic acid] was tested, and the IC50 (SiHa cells; Homo sapiens, SiHa) was > 100 µM and the IC50 (HcerEpic cells; Homo sapiens) was > 100 µM.
For `O=C(O[C@@H]1O[C@@H]2COC(=O)c3cc(O)c(O)c(O)c3-c3c(cc(O)c(O)c3O)C(=O)O[C@H]([C@H]1O)[C@@H]2O)c1cc(O)c(O)c(O)c1` [Corilagin], the IC50 (SiHa cells; Homo sapiens, SiHa) was 28.7 µM, the IC50 (HcerEpic cells; Homo sapiens) was > 100 µM and the “expression level of Bcl-2 protein” value [1] was “downregulated”. For the same compound, the “expression level of Caspase3 protein” value [1] was “significantly upregulated”, the “expression level of Csapase9 protein” value [1] was “significantly upregulated” and the “expression level of P53 protein” value [1] was “significantly upregulated”.
In the case of `O=c1oc2c(O)c(O)cc3c(=O)oc4c(O)c(O)cc1c4c23` [Ellagic acid], the IC50 (SiHa cells; Homo sapiens, SiHa) is reported as 21.5 µM, the IC50 (HcerEpic cells; Homo sapiens) is reported as > 100 µM and the “expression level of Bcl-2 protein” value [1] is reported as “downregulated”. For the same compound, the “expression level of Caspase3 protein” value [1] was “significantly upregulated”, the “expression level of Csapase9 protein” value [1] was “significantly upregulated” and the “expression level of P53 protein” value [1] was “significantly upregulated”.
In the case of `O=C(O)c1cc(O)c(O)c(O)c1` [Gallic acid], the IC50 (SiHa cells; Homo sapiens, SiHa) is reported as > 100 µM and the IC50 (HcerEpic cells; Homo sapiens) is reported as > 100 µM.
For Citrate acid, the IC50 (SiHa cells) was > 100 µM and the IC50 (HcerEpic cells) was > 100 µM.
